In patent US12679839B2, “Cyclin-dependent kinase 7 (CDK7) non-covalent inhibitors” (JANSSEN PHARMACEUTICA NV, priority 2020, dated 2026):

Each compound was assayed against T1, CDK7/Cyclin H/MAT-1 complex (Homo sapiens, UniProt P50613) (assay: Absorbance kinetic assay (20 nM CDK7/Cyclin H/MAT-1 complex)). Conditions: not given.
T1 construct: Human CDK7 (amino acids 1-346); His6 (N); TEV protease cleavage site (N); made in house; host or cells: baculovirus-SF9 insect cells
Format: biochemical
Procedure, shortened: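 Trimeric complex (His6-TEV CDK7 1-346, MAT1 1-309, cyclin H 1-323) from Sf9 cells, at 20 nM, phosphorylating RNA Pol II-derived CDK7/9-tide; ADP coupled via PK/LDH to NADH depletion read at 340 nm every 2 min for 8 h. Steady-state slopes gave % inhibition; IC50 from 11-point Hill fit.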

T1 sequence (P50613 whole entry, the tested form may be a part): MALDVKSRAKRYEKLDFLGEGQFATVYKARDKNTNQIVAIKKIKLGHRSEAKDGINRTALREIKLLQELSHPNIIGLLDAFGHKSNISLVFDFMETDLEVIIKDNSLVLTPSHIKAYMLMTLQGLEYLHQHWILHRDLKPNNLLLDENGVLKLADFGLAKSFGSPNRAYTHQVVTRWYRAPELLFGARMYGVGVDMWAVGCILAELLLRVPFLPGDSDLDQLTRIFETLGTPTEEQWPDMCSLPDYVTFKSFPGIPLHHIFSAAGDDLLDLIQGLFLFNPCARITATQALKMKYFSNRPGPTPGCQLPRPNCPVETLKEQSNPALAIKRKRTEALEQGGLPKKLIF
T1 sequence (P51946 whole entry partner, the tested form may be a part): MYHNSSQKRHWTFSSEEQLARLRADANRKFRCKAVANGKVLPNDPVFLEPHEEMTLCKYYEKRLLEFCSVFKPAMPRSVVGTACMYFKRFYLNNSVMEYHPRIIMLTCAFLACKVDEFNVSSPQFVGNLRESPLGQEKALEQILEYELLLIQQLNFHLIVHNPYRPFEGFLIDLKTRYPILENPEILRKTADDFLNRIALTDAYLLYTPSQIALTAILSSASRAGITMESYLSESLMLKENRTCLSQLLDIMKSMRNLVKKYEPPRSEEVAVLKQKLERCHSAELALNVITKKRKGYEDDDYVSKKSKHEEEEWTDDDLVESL
T1 sequence (P51948 whole entry partner, the tested form may be a part): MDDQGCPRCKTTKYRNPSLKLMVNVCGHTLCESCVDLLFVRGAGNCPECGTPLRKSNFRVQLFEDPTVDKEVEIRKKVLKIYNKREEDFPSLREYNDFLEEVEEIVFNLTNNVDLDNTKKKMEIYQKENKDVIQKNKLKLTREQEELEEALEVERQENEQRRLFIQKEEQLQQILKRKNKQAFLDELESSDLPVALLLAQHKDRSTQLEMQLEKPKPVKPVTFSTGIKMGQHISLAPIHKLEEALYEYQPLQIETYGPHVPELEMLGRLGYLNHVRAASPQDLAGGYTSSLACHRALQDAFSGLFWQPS

CDK7 (20 nM) pIC50 | Structure (SMILES)
6.25 | C[C@@H]1Cc2cnc(NC3CCOCC3)nc2CN1C(=O)[C@@H]1CC[C@@H](N(C)C)CN1c1ccccc1 (mixture of isomers) [Compound 167]
>7.7 | C[C@@H]1Cc2cnc(NC3CCN(S(=O)(=O)N(C)C)CC3)nc2CN1C(=O)N1CCN(C)C[C@@H]1c1ccccc1 [Compound 211]
8.01 | CO[C@H]1CC[C@H](Nc2ncc3c(n2)CN(C(=O)[C@H]2CCN(C)C[C@@H]2c2ccccc2)[C@H](C)C3)CC1 [Compound 37]
8.01 | C[C@@H]1Cc2cnc(N[C@H](CO)c3ccccc3)nc2CN1C(=O)[C@H]1CCN(C)C[C@@H]1c1ccccc1 [Compound 72]
8.01 | C[C@@H]1Cc2cnc(N[C@H](C)c3ccccc3)nc2CN1C(=O)[C@H]1CCN(C)C[C@@H]1c1ccccc1 [Compound 22]
8.01 | C[C@@H]1Cc2cnc(NC3Cc4ccccc4C3)nc2CN1C(=O)[C@H]1CCN(C)C[C@@H]1c1ccccc1 [Compound 29]
7.74 | Cc1cccc([C@H]2CN(C(C)C)CC[C@@H]2C(=O)N2Cc3nc(NC4CCOCC4)ncc3C[C@H]2C)c1 [Compound 166]
8.01 | C[C@@H]1Cc2cnc(NCc3ccccc3)nc2CN1C(=O)[C@H]1CCN(C)C[C@@H]1c1ccccc1 [Compound 43]
8.01 | C[C@H](Nc1ncc2c(n1)CN(C(=O)[C@H]1CCN(C)C[C@@H]1c1ccccc1)[C@H](C)C2)c1ccccn1 [Compound 20]
6.66 | C[C@@H]1Cc2cnc(NCc3cnn(C)c3)nc2CN1C(=O)[C@H]1CCN(C)C[C@@H]1c1ccccc1 [Compound 57]
6.80 | CO[C@H]1CC[C@H](Nc2ncc3c(n2)CN(C(=O)[C@H]2CCN(C)C[C@@H]2c2ccccc2)C2(CC2)C3)CC1 [Compound 192]
7.53 | C[C@@H]1Cc2cnc(Nc3cnn4c3CCCC4)nc2CN1C(=O)[C@H]1CCN(C)C[C@@H]1c1ccccc1 [Compound 77]
>8.01 | C[C@@H]1Cc2cnc(NC3CCC(OCC4CC4)CC3)nc2CN1C(=O)[C@H]1CCN(C)C[C@@H]1c1ccccc1 (stereo partly drawn) [Compound 3]
7.43 | C[C@@H]1Cc2cnc(NC(C)(C)c3cnn(C)c3)nc2CN1C(=O)[C@H]1CCN(C)C[C@@H]1c1ccccc1 [Compound 90]
7.37 | C[C@@H]1Cc2cnc(Nc3ccnn3C)nc2CN1C(=O)[C@H]1CCN(C)C[C@@H]1c1ccccc1 [Compound 79]
7.6 | Cc1ccc(CNc2ncc3c(n2)CN(C(=O)[C@H]2CCN(C)C[C@@H]2c2ccccc2)[C@H](C)C3)o1 [Compound 50]
>8.01 | C[C@@H]1Cc2cnc(NC3CCC(OC(F)F)CC3)nc2CN1C(=O)[C@H]1CCN(C)C[C@@H]1c1ccccc1 (stereo partly drawn) [Compound 69]
>7.7 | C[C@@H]1Cc2cnc(NC3CCS(=O)(=O)CC3)nc2CN1C(=O)[C@H]1CCN(C)C[C@@H]1c1ccccc1 [Compound 44]
7.46 | C[C@@H]1Cc2cnc(Nc3ccnc(C(F)F)c3)nc2CN1C(=O)[C@H]1CCN(C)C[C@@H]1c1ccccc1 [Compound 75]
6.53 | CN1CC[C@H](C(=O)N2Cc3nc(NCc4ccn(C)n4)ncc3CC2(C)C)[C@@H](c2ccccc2)C1 (single isomer, unassigned) [Compound 191]
8.01 | C[C@@H]1Cc2cnc(N[C@H]3CC[C@H](C)CC3)nc2CN1C(=O)[C@H]1CCN(C)C[C@@H]1c1ccccc1 [Compound 13]
6.96 | CC(C)N1CC[C@H](C(=O)N2Cc3nc(NC4CCOCC4)ncc3C[C@H]2C)[C@@H](c2cccc(Cl)c2)C1 (single isomer, unassigned) [Compound 160]
>8.01 | CN1CC[C@H](C(=O)N2Cc3nc(NC4CCOCC4)ncc3[C@@H]3C[C@@H]32)[C@@H](c2ccccc2)C1 [Compound 199]
>8.01 | C[C@@H]1Cc2cnc(Nc3cnn(C)c3)nc2CN1C(=O)[C@H]1CCN(C)C[C@@H]1c1ccccc1 [Compound 82]
>8.01 | Cc1cccc([C@H]2CN(C)CC[C@@H]2C(=O)N2Cc3nc(NC4CCOCC4)ncc3C[C@H]2C)c1 [Compound 93]
>8.01 | C[C@@H]1Cc2cnc(NCc3ccccc3)nc2CN1C(=O)[C@H]1CCN(CC2COC2)C[C@@H]1c1ccccc1 (single isomer, unassigned) [Compound 155]
>7.7 | C[C@@H]1Cc2cnc(NC3CCN(S(=O)(=O)C4CC4)CC3)nc2CN1C(=O)N1CCN(C)C[C@@H]1c1ccccc1 [Compound 210]
7.77 | C[C@@H]1Cc2cnc(NC3CCN(S(C)(=O)=O)CC3)nc2CN1C(=O)N1CCN(C)C[C@@H]1c1ccccc1 [Compound 209]

Same assay, conditions: read-out: CDK7 (20 nM) pIC50 (converted)

IC50 [µM] | Structure (SMILES)
0.011 | C[C@@H]1Cc2cnc(N[C@@H]3CCOC(C)(C)C3)nc2CN1C(=O)[C@H]1CCN(C)C[C@@H]1c1ccccc1 (relative stereo) [Compound 40]
0.0132 | C[C@H]1Cc2cnc(NC3CCOCC3)nc2CN1C(=O)N1CCN(C)C[C@H]1c1cccc(F)c1 (relative stereo) [Compound 212]
< 0.00977 | C[C@@H]1Cc2cnc(N[C@H]3CCC(=O)N(C)C3)nc2CN1C(=O)[C@H]1CCN(C)C[C@@H]1c1ccccc1 (relative stereo) [Compound 7]
0.389 | CO[C@H]1CC[C@H](Nc2cc3c(cn2)C[C@H](C)N(C(=O)[C@H]2CCN(C)C[C@@H]2c2cccc(C)c2)C3)CC1 [Compound 177c]
0.0186 | C[C@@H]1Cc2cnc(NCc3ccn(C)n3)nc2CN1C(=O)[C@H]1CCN(C)C[C@@H]1c1cccc(OC(F)(F)F)c1 (relative stereo) [Compound 128]
< 0.00977 | C[C@@H]1Cc2cnc(N[C@H]3CCOC4(CCC4)C3)nc2CN1C(=O)[C@H]1CCN(C)C[C@@H]1c1ccccc1 (relative stereo) [Compound 9]
< 0.00977 | CO[C@H]1CC[C@H](Nc2ncc3c(n2)CN(C(=O)[C@H]2CCN(C)C[C@@H]2c2ccc(C)nc2)[C@H](C)C3)CC1 (relative stereo) [Compound 110]
< 0.00977 | C[C@@H]1Cc2cnc(N[C@@H]3CCOC4(CCC4)C3)nc2CN1C(=O)[C@H]1CCN(C)C[C@@H]1c1ccccc1 (relative stereo) [Compound 8]
0.0123 | C[C@@H]1Cc2cnc(N[C@H](C)c3ccn(C)n3)nc2CN1C(=O)[C@H]1CCN(C)C[C@@H]1c1ccccc1 (single isomer, unassigned) [Compound 54]
0.00977 | C[C@H]1Cc2cnc(NC3CCOCC3)cc2CN1C(=O)[C@H]1CCN(C)C[C@@H]1c1ccccc1 (single isomer, unassigned) [Compound 171a]
0.017 | Cc1cccc([C@H]2CN(C)CC[C@@H]2C(=O)N2Cc3nc(Nc4cnn(C)c4)ncc3[C@@H]3C[C@@H]32)c1 (relative stereo) [Compound 203]
0.141 | C[C@H](Nc1ncc2c(n1)CN(C(=O)[C@H]1CCN(C)C[C@@H]1c1ccccc1)[C@H](C)C2)c1ccn(C)n1 (single isomer, unassigned) [Compound 55]
< 0.00977 | [2H]C([2H])(Nc1ncc2c(n1)CN(C(=O)[C@H]1CCN(C)C[C@@H]1c1ccccc1)[C@H](C)C2)c1ccccc1 [Compound 70]
0.0112 | C[C@H]1Cc2cnc(NCc3ccn(C)n3)cc2CN1C(=O)[C@H]1CCN(C)C[C@@H]1c1ccccc1 (relative stereo) [Compound 174]
